Laboratory results from ChEMBL document CHEMBL1139246, “Pyridine-3-carboxamides as novel CB(2) agonists for analgesia” (Bioorg Med Chem Lett, 2009).
Several values for one entry are separate records, joined by “and”; a condition that tells them apart may be missing. Identical values can stand only once.

System: Rattus norvegicus
Test: Dose normalized AUC (0 to t) in rat at 30 mg/kg, po after 6 hrs
Assay type: ADME, organism-based
Set-up: time < 6 hr, dose 30 mg/kg, route oral
Conditions: in vivo

SMILES | AUC [kg·min/L]
CC(C)(C)c1cc(Nc2ccc(Cl)cc2Cl)ncc1C(=O)NCC1CCOCC1 | 16
O=C(NCC1CCOCC1)c1cnc(Nc2cccc(Br)c2)cc1C1CC1 | 5
O=C(NCC1CCOCC1)c1cnc(Nc2ccc(Cl)cc2Cl)cc1C1CC1 | 15
O=C(NCC1CCOCC1)c1cnc(Nc2cccc(OC(F)(F)F)c2)cc1C1CC1 | 3

System: not listed separately
Test: Dissociation constant, pKa of the compound
Assay type: physicochemical
Conditions: not given

SMILES | pKa
CC(C)c1cc(Nc2cccc(Cl)c2)ncc1C(=O)NCC1CCOCC1 | 6.02
O=C(NCC1CCOCC1)c1cnc(Nc2cccc(Cl)c2)cc1C(F)(F)F | 2.63
O=C(NCC1CCCC1)c1cnc(Nc2ccc(Cl)cc2Cl)cc1C(F)(F)F | 2.63
O=C(NCc1ccc(F)cc1)c1cnc(Nc2cccc(Br)c2)cc1C(F)(F)F | 2.63
NC(=O)c1ccc(CNC(=O)c2cnc(Nc3cccc(Cl)c3)cc2C(F)(F)F)cc1 | 2.63
CC(C)c1cc(Nc2cccc(Cl)c2)ncc1C(=O)NC1CCOCC1 | 6.02
CC(C)c1cc(Nc2cccc(C(F)(F)F)c2F)ncc1C(=O)NCC1CCOCC1 | 6.02
CC(C)c1cc(Nc2cccc(Cl)c2)ncc1C(=O)NCC1CCCC1 | 6.02
Cc1cccc(Nc2cc(C(C)C)c(C(=O)NCC3CCC3)cn2)c1 | 6.02
CC(C)CNC(=O)c1cnc(Nc2cccc(Cl)c2)cc1C(C)C | 6.02
O=C(NCC1CCOCC1)c1cnc(Nc2cccc(F)c2)cc1C(F)(F)F | 2.63
Cc1cc(Cl)ccc1Nc1cc(C(F)(F)F)c(C(=O)NCC2CCOCC2)cn1 | 2.63
COc1ccc(Cl)cc1Nc1cc(C(F)(F)F)c(C(=O)NCC2CCC2)cn1 | 2.63
O=C(NCC1CCCCC1)c1cnc(Nc2cccc(Cl)c2)cc1C(F)(F)F | 2.63
CCC(CC)CNC(=O)c1cnc(Nc2cccc(Cl)c2)cc1C(C)C | 6.02
CC(C)c1cc(Nc2ccc(Cl)cc2Cl)ncc1C(=O)NCC1CCOCC1 | 6.02
CC(C)c1cc(Nc2cccc(Br)c2)ncc1C(=O)NCC1CCOCC1 | 6.02
Cc1cccc(Nc2cc(C(C)C)c(C(=O)NCC3CCOCC3)cn2)c1 | 6.02
CC(C)c1cc(Nc2cccc(C#N)c2)ncc1C(=O)NCC1CCOCC1 | 6.02
COc1cccc(Nc2cc(C(C)C)c(C(=O)NCC3CCOCC3)cn2)c1 | 6.02
CC(C)c1cc(Nc2cccc(Cl)c2)ncc1C(=O)NCC(C)(C)C | 6.02
CC(C)c1cc(Nc2cccc(Cl)c2)ncc1C(=O)NCc1ccc(F)cc1 | 6.02
CC(C)c1cc(Nc2ccc(C#N)c(Cl)c2)ncc1C(=O)NCC1CCOCC1 | 6.02
COc1ccc(Cl)cc1Nc1cc(C(F)(F)F)c(C(=O)NCC2CCOCC2)cn1 | 2.63
O=C(NCC1CCOCC1)c1cnc(Nc2ccc(Cl)cc2Cl)cc1C(F)(F)F | 2.63

System: not listed separately
Test: Clearance in rat at 1 mg/kg, iv
Assay type: ADME, organism-based
Set-up: dose 1 mg/kg, route intravenous
Conditions: in vivo

SMILES | clearance
O=C(NCC1CCOCC1)c1cnc(Nc2ccc(Cl)cc2Cl)cc1C1CC1 | 14 mL/min/kg and 14 mL/min

System: not listed separately
Test: Half life in rat at 1 mg/kg, iv
Assay type: ADME, organism-based
Set-up: dose 1 mg/kg, route intravenous
Conditions: in vivo

SMILES | half-life [h]
O=C(NCC1CCOCC1)c1cnc(Nc2ccc(Cl)cc2Cl)cc1C1CC1 | 3.1

System: not listed separately
Test: Oral bioavailability in rat at 3 mg/kg
Assay type: ADME, organism-based
Conditions: in vivo

SMILES | bioavailability [%]
O=C(NCC1CCOCC1)c1cnc(Nc2ccc(Cl)cc2Cl)cc1C1CC1 | 39

System: not listed separately
Test: Volume of distribution in rat at 1 mg/kg, iv
Assay type: ADME, organism-based
Set-up: dose 1 mg/kg, route intravenous
Conditions: in vivo

SMILES | Vd [L/kg]
O=C(NCC1CCOCC1)c1cnc(Nc2ccc(Cl)cc2Cl)cc1C1CC1 | 2.4
